Literature values as cited in patent US20070269473A1, “Microbial Encapsulation” (priority 2004, published 2007).

Conditions: octanol/water; carriers

| Compound | logP(o/w) |
| --- | --- |
| Acetophenone (1-phenyl-Ethanone) | 1.7 |
| 1,3,5-trimethyl-Benzene (Mesitylene) | 3.6 |
| COC(=O)c1ccccc1 [Methyl benzoate] | 1.8 |
